≈ marks a conversion by molar mass, not a printed value. Where “and” joins values, the source holds several entries; their conditions need not be identical. Equal values may be shown once. Read-outs that look alike come from different tables or passages of the source. Where no end group is shown, it is not given here.
Experiments:
[1] = system: MDR P. aeruginosa (FADDI-PA067); test: Antibiogram of MDR P. aeruginosa; type: cell-based, Pseudomonas aeruginosa; settings: for Susceptibility: CLSI resistant breakpoints
[2] = system: MDR A. baumannii (FADDI-AB156); test: Antibiogram of MDR A. baumannii; type: cell-based, Acinetobacter baumannii; settings: for Susceptibility: CLSI resistant breakpoints
[3] = system: CMDR A. baumannii (FADDI-AB156); test: Mouse peritonitis model; type: in vivo, C57BL/6 mice; settings: 24 h infection
[4] = system: sheep red blood cells (RBCs); test: Hemolysis assay
Method: Fresh sheep red blood cells (RBCs) were diluted 1 in 20 in PBS (pH 7.4), pelleted by centrifugation, and washed three times in PBS (1000 g, 10 min). The RBCs were counted using a cell counter (Coulter Particle Counter Z series, Beckman Coulter) and diluted to a final concentration of 2×10^7 cells/mL. 100 μL aliquots of the RBC solution were seeded into a V-bottomed 96-well plate containing 100 μL of test compound solution of varying concentrations (4-256 μg/mL) and incubated in a humidified atmosphere containing 5% CO2 at 37° C. for 2 h. Following incubation, the 96-well plate was centrifuged (1000 g, 10 min) and aliquots (100 μL) of supernatant were transferred to a flat-bottomed 96-well plate. Hemoglobin release upon lysis of the RBCs was monitored at 405 nm using a microplate reader (PerkinElmer 1420 Multilabel Counter VICTOR^3). Positive and negative controls for hemolysis were taken as RBC lysed with 0.5% Triton X-100 (1:1 v/v) and RBC suspension in PBS, respectively. The percentage of hemolysis was calculated using the following formula:
The percentage hemolysis was plotted against peptide polymer concentration and linear regression analysis was used to determine the hemolytic concentration needed to lyse 50% (HC50) of RBCs. Two independent runs of the assay were conducted and two replicates were used in each run for each compound and concentration.
Fresh sheep red blood cells (RBCs) were diluted 1 in 20 in PBS (pH 7.4), pelleted by centrifugation, and washed three times in PBS (1000 g, 10 min). The RBCs were counted using a cell counter (Coulter Particle Counter Z series, Beckman Coulter) and diluted to a final concentration of 2×10^7 cells/mL. 100 μL aliquots of the RBC solution were seeded into a V-bottomed 96-well plate containing 100 μL of polypeptide solution of varying concentrations (4-256 μg/mL) and incubated in a humidified atmosphere containing 5% CO2 at 37° C. for 2 h. Following incubation, the 96-well plate was centrifuged (1000 g, 10 min) and aliquots (100 μL) of supernatant were transferred to a flat-bottomed 96-well plate. Hemoglobin release upon lysis of the RBCs was monitored at 405 nm using a microplate reader (PerkinElmer 1420 Multilabel Counter VICTOR3). Positive and negative controls for hemolysis were taken as RBC lysed with 0.5% Triton X-100 (1:1 v/v) and RBC suspension in PBS, respectively. The percentage of hemolysis was calculated using the following formula:
The percentage hemolysis was plotted against polypeptide concentration and linear regression analysis was used to determine the hemolytic concentration needed to lyse 50% (HC50) of RBCs. Two independent runs of the assay were conducted and two replicates were used in each run for each polypeptide and concentration.

[5] = system: E. coli; test: Minimum inhibitory concentration (MIC), broth microdilution; type: cell-based; settings: Escherichia coli
Method: The MICs of the PAMAM dendrimers were determined using a broth microdilution method. After the preparation of a dilution series of each compound and the addition of bacterial cells (Note: steps identical to that taken for the measurement of MBC), the optical density readings of each well at 630 nm were measured as a function of time using a microplate reader (Multiskan Ascent, Pathtech Pty. Ltd.). Positive controls containing cells alone were incorporated. Optical density was plotted against polymer concentration and linear regression analysis was used to determine the lowest concentration (MIC) at which the optical density reading becomes zero. A minimum of two independent experiments (biological replicates) of the assay were conducted and two technical replicates were used in each experiment for each bacterium, polymer, and concentration. Data is expressed as mean±standard deviation (SD) of the biological replicates and analysed using student's t-test.

[6] = system: E. coli (ATCC 25922); test: Minimum bactericidal concentration (MBC); type: cell-based, Escherichia coli; design: unit not given here; settings: MHB
Excerpt: (§1) The number of colony-forming units (CFU) was counted and expressed as CFU/mL. Positive controls consisting of cells without any treatment were used.
as §1

[7] = system: A. baumannii (ATCC 19606); test: Minimum bactericidal concentration (MBC); type: cell-based, Acinetobacter baumannii; design: unit not given here; settings: MHB
Method: (§2) A dilution series of each compound was made by diluting test compound stock in media to a desired range of concentrations and a final volume of 100 μL in each well of a 96-well plate. Bacterial cells (which gave an optical density reading of ˜0.7 at 650 nm for E. coli, K. pneumoniae, P. aeruginosa, and S. aureus, ˜0.5 at 650 nm for A. baumannii and ˜1.8 at 650 nm for S. mutans) were diluted to 2.5×10^6 cells/mL in media and 100 μL of the bacteria solution was added to each well. The 96-well plate was then incubated at 37° C. for 90 min. For each well, microbial solution was diluted with saline (0.9% NaCl solution) using an appropriate dilution factor and placed on an agar plate (identical to that used for bacteria culture). For E. coli, K. pneumoniae, A. baumannii, and S. aureus, the agar plates were incubated overnight at room temperature, and then at 37° C. with aeration for 2 h. For P. aeruginosa and S. mutans, the agar plates were incubated at 37° C., with the former being incubated overnight with aeration and the latter in an anaerobic chamber for 48 h. The number of colony-forming units (CFU) was counted and expressed as CFU/mL. Positive controls consisting of cells without any treatment were used. […] Data is expressed as mean±standard deviation (SD) of the biological replicates and analysed using student's t-test. […]

[8] = system: K. pneumoniae (ATCC 13883); test: Minimum bactericidal concentration (MBC); type: cell-based, Klebsiella pneumoniae; design: unit not given here; settings: MHB
Method: as §2

[9] = system: P. aeruginosa (ATCC 47085); test: Minimum bactericidal concentration (MBC); type: cell-based, Pseudomonas aeruginosa; design: unit not given here; settings: MHB
Method: as §2

[10] = concentration giving 50% hemolysis, 2 h

Compound: Gentamicin
- Susceptibility [1]: Resistant
- MIC [2]: ≥33.5 µM
- Susceptibility [2]: Resistant

Compound: NC[C@H]1O[C@H](O[C@H]2[C@H](O)[C@@H](O[C@H]3O[C@H](CO)[C@@H](O)[C@H](N)[C@H]3O)[C@H](N)C[C@@H]2N)[C@H](N)C[C@@H]1O [Tobramycin]
- Susceptibility [1]: Resistant
- MIC ([2]; Acinetobacter baumannii): ≥ 34.2 µM
- Susceptibility [2]: Resistant

Compound: CO/N=C(\C(=O)N[C@@H]1C(=O)N2C(C(=O)O)=C(CSc3nc(=O)c(=O)[nH]n3C)CS[C@H]12)c1csc(N)n1 [Ceftriaxone]
- Susceptibility [2]: Resistant

Compound: Colistin Sulfate
- Susceptibility, concentration in parentheses [1]: > 110.8 µM
- Susceptibility [1]: Resistant
- MIC [2]: 13.8 µM
- Susceptibility [2]: Resistant

Compound: CCN1CCN(C(=O)N[C@@H](C(=O)N[C@@H]2C(=O)N3[C@@H]2SC(C)(C)[C@@H]3C(=O)O)c2ccccc2)C(=O)C1=O [Piperacillin]
- Susceptibility [1]: Resistant

Compound: C[C@@H](O)[C@H]1C(=O)N2C(C(=O)O)=C(SCCN=CN)C[C@H]12 [Imipenem]
- survival [3]: 50%
- MIC ([2]; Acinetobacter baumannii): ≥ 214 µM

Compound: COc1cc(Cc2cnc(N)nc2N)cc(OC)c1OC [Trimethoprim]
- Susceptibility [2]: Resistant

Compound: GIGKFLHSAKKFGKAFVGEIMNS-NH2 [Magainin II]
- HC50 [4, 10]: 81.1 µM
- HC50 ([4]; extrapolated from FIG. 59): 33 μg/mL and 81.1 μM

Compound: CO[C@@]1(NC(=O)Cc2cccs2)C(=O)N2C(C(=O)O)=C(COC(N)=O)CS[C@@H]21 [Cefoxitin]
- Susceptibility [2]: Resistant

Compound: CCn1cc(C(=O)O)c(=O)c2ccc(C)nc21 [Nalidixic Acid]
- Susceptibility [2]: Resistant

Compound: NCC[C@H](O)C(=O)N[C@@H]1C[C@H](N)[C@@H](O[C@H]2O[C@H](CN)[C@@H](O)[C@H](O)[C@H]2O)[C@H](O)[C@H]1O[C@H]1O[C@H](CO)[C@@H](O)[C@H](N)[C@H]1O [Amikacin]
- Susceptibility [2]: Resistant

Compound: CCn1cc(C(=O)O)c(=O)c2cc(F)c(N3CCNCC3)cc21 [Norfloxacin]
- Susceptibility [2]: Resistant

Compound: Ticarcillin/Clavulanic Aid
- MIC [2]: ≥333.0 µM
- Susceptibility [2]: Resistant

Compound: C[C@@H](O)[C@H]1C(=O)N2C(C(=O)O)=C(S[C@@H]3CN[C@H](C(=O)N(C)C)C3)[C@H](C)[C@H]12 [Meropenem]
- Susceptibility [2]: Resistant

Compound: CC1(C)S[C@@H]2[C@H](NC(=O)[C@H](N)c3ccccc3)C(=O)N2[C@H]1C(=O)O [Ampicillin]
- MIC ([2]; Acinetobacter baumannii): ≥ 91.6 µM
- Susceptibility [2]: Resistant

Compound: CO/N=C(\C(=O)N[C@@H]1C(=O)N2C(C(=O)[O-])=C(C[N+]3(C)CCCC3)CS[C@H]12)c1csc(N)n1 [Cefepime]
- Susceptibility [2]: Resistant

Compound: CC1(C)S[C@@H]2[C@H](NC(=O)[C@H](C(=O)O)c3ccsc3)C(=O)N2[C@H]1C(=O)O [Ticarcillin]
- Susceptibility [1]: Resistant

Compound: Amoxicillin/Clavulanic Acid
- MIC [2]: ≥87.6 µM
- Susceptibility [2]: Resistant

Compound: C[C@H]1c2cccc(O)c2C(=O)C2=C(O)[C@]3(O)C(=O)C(C(N)=O)=C(O)[C@@H](N(C)C)[C@@H]3[C@@H](O)[C@@H]21 [doxycycline]
- MIC [5]: 0.5 µg/mL (≈ 1.13 µM)

Compound: Ovispirin: antimicrobial peptide NH2- KNLRRIIRKIIHIIKKYG-COOH (H-KNLRRIIRKIIHIIKKYG-OH; also: SNAPP conjugate)
- MBC [6]: 8.39 ± 0.44
- MBC [7]: 2.21 ± 0.88
- MBC [8]: 11.49 ± 4.86
- MBC [9]: 95.49 ± 9.73
- HC50 [4, 10]: 61.8 µM
- HC50 ([4]; extrapolated from FIG. 59): 27 μg/mL and 61.8 μM

Compound: C[C@H]1[C@H](NC(=O)/C(=N\OC(C)(C)C(=O)O)c2csc(N)n2)C(=O)N1S(=O)(=O)O [Aztreonam]
- Susceptibility [1]: Resistant

Compound: CC(C)(O/N=C(\C(=O)N[C@@H]1C(=O)N2C(C(=O)[O-])=C(C[n+]3ccccc3)CS[C@H]12)c1csc(N)n1)C(=O)O [Ceftazidime]
- Susceptibility [1]: Resistant
- Susceptibility [2]: Resistant

Compound: Piperacillin/Tazobactam
- MIC [2]: ≥247.3 µM
- Susceptibility [2]: Resistant

Compound: Cc1nnc(SCC2=C(C(=O)O)N3C(=O)[C@@H](NC(=O)Cn4cnnn4)[C@H]3SC2)s1 [Cefazolin]
- Susceptibility [2]: Resistant

Compound: Trimethoprim/Sulfamethoxazole
- MIC [2]: ≥1102.2 µM
- Susceptibility [2]: Resistant
